Measured values as given in ChEMBL document CHEMBL5579812, “"PROTAC" modified dihydroquinolizinones (DHQs) that cause degradation of PAPD-5 and inhibition of hepatitis A virus and hepatitis B virus, in vitro” (Bioorg Med Chem Lett, 2024).
pIC50: −log10 of the molar value. One block for each molecule: values may come before it. The source made the active and inactive calls. The calls are words filed in the database; no cut-off is given here.

What was measured:
[1] = Cytotoxicity against human Huh7.5 cells; format: toxicity, cell-based, Huh-7.5
[2] = tested on: Hepatovirus A; assay: Inhibition of replication of Hepatitis A virus expressing 18f-NLuc infected in human Huh7.5 cells treated for 48 hrs by luminescence based analysis; format: functional, organism-based; conditions: for pIC50: Huh7.5, 48 h
[3] = tested on: HepG2.2.15; assay: Inhibition of 2.1 to 3.5 kb HBV mRNA accumulation in human HepG2.2.15 cells at 7.5 to 15 uM treated for 5 days by northern blot analysis; format: functional, cell-based; conditions: Hepatitis B virus, dose 7.5-15 µM, time 5.0 day
[4] = tested on: Huh-7.5; assay: Effect on PAPD7 expression in human Huh7.5 cells at 1 uM incubated for 24 hrs by Western blot analysis; format: functional, cell-based
[5] = tested on: Huh-7.5; assay: Effect on actin expression in human Huh7.5 cells at 1 uM incubated for 24 hrs by Western blot analysis; format: functional, cell-based
[6] = tested on: HepG2.2.15; assay: Inhibition of 2.1 to 3.5 kb HBV mRNA accumulation in human HepG2.2.15 cells at 1 to 2 nM treated for 5 days by northern blot analysis; format: functional, cell-based; conditions: Hepatitis B virus, dose 1-2 nM, time 5.0 day
[7] = tested on: Huh-7.5; assay: Effect on PAPD5 expression in human Huh7.5 cells at 1 uM incubated for 24 hrs by Western blot analysis; format: functional, cell-based
[8] = Inhibition HBsAg secretion in human HepG2.2.15 cells treated for 3 days followed by medium replacement without compound measured after 2 days by CLIA; format: functional, cell-based; conditions: HepG2 2.2.15
[9] = tested on: Huh-7.5; assay: Effect on PAPD5 expression in human Huh7.5 cells at 250 nM incubated for 24 hrs by Western blot analysis; format: functional, cell-based
[10] = tested on: Huh-7.5; assay: Effect on PAPD7 expression in human Huh7.5 cells at 250 nM incubated for 24 hrs by Western blot analysis; format: functional, cell-based
[11] = biological target: T1, Protein cereblon/Terminal nucleotidyltransferase 4B (Homo sapiens) (UniProt Q96SW2+Q8NDF8); assay: PROTAC activity at CRBN/PAPD5 in human Huh7.5 cells assessed as protein degradation at 10 uM incubated for 24 hrs by Western blot analysis; format: cell-based
T1 sequence (Q8NDF8 whole entry, looked up): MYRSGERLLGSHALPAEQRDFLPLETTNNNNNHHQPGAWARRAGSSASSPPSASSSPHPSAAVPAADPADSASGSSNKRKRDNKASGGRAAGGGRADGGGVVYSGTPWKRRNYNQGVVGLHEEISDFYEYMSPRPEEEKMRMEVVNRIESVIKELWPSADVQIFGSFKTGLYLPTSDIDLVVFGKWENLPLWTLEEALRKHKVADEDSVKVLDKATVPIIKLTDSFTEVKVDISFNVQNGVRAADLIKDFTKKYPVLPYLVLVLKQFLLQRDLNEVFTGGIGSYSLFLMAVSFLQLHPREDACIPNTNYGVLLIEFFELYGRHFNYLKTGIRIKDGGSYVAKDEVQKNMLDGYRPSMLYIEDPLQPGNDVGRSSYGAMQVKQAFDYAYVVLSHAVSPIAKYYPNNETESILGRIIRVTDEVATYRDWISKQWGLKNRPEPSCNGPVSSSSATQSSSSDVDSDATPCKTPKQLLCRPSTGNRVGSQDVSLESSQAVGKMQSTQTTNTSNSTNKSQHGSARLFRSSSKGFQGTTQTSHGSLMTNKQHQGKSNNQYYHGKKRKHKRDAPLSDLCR
T1 sequence (Q96SW2 whole entry, looked up): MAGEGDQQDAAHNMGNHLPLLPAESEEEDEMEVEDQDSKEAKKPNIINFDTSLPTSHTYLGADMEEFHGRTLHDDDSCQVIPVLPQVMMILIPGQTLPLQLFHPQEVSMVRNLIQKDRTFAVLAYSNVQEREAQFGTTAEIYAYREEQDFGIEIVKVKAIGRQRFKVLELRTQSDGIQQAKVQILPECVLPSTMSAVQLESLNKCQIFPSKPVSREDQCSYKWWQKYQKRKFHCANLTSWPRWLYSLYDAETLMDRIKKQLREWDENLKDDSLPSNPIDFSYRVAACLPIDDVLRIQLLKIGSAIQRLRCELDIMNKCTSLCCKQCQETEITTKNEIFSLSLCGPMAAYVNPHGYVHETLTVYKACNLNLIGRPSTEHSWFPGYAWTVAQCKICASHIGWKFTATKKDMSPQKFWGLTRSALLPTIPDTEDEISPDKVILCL

[12] = Inhibition HBsAg secretion in human Huh-7 cells harboring pHBV1.3 treated for 2 days followed by replacement of medium containing compound measured after 4 days by CLIA; format: functional, cell-based
[13] = tested on: Huh-7.5; assay: Effect on PAPD7 expression in human Huh7.5 cells at 10 uM incubated for 24 hrs by Western blot analysis; format: functional, cell-based
[14] = biological target: T1, Protein cereblon/Terminal nucleotidyltransferase 4B (Homo sapiens); assay: PROTAC activity at CRBN/PAPD5 in human Huh7.5 cells assessed as protein degradation at 10 uM incubated for 24 hrs in presence of epoxomicin by Western blot analysis; format: cell-based
[15] = Cytotoxicity against human Huh-7 cells assessed as cell viability by Cell Titer Glo assay; format: toxicity, cell-based
[16] = tested on: Huh-7.5; assay: Effect on actin expression in human Huh7.5 cells at 10 uM incubated for 24 hrs by Western blot analysis; format: functional, cell-based

pIC50 [2]: 6.24
Compound: COc1cc2c(cc1OCCCNC(=O)CCOCCOCCOCCNc1cccc3c1C(=O)N(C1CCC(=O)NC1=O)C3=O)C[C@@H](C(C)C)n1cc(C(=O)O)c(=O)cc1-2 (some centres not stated)
CC50 [1]: > 50 µM
inhibition [2]: Dose-Dependent Effect
inhibition [3]: Active

pIC50 [8]: 9.00
Compound: COCCCOc1cc2c(cc1OC)-c1cc(=O)c(C(=O)O)cn1[C@H](C(C)C)C2
Activity [4]: inactive
Activity [5]: inactive
inhibition [6]: Active
Activity [7]: inactive

Compound: CC[C@H](C)[C@H](NC(=O)[C@H]([C@@H](C)CC)N(C)C(C)=O)C(=O)N[C@H](C(=O)N[C@@H](CC(C)C)C(=O)[C@@]1(C)CO1)[C@@H](C)O
Activity [9]: inactive
Activity [10]: inactive

Compound: COc1cc2c(cc1OCCCNC(=O)CCOCCOCCOCCOCCOCCOCCNc1cccc3c1C(=O)N(C1CCC(=O)NC1=O)C3=O)C[C@@H](C(C)C)n1cc(C(=O)O)c(=O)cc1-2 (some centres not stated)
CC50 [1]: > 50 µM
Activity [11]: Active
pIC50 [12]: 4.98
Activity [13]: inactive
Activity [14]: inactive
CC50 [15]: > 50 µM
Activity [16]: inactive
inhibition [2]: Dose-Dependent Effect
pIC50 [2]: 6.56
inhibition [3]: Active
pIC50 [8]: 4.79
